Data reported in patent publication US20230364070A1, “PYRROLO[3,2-C]PYRIDIN-4-ONE DERIVATIVES USEFUL IN THE TREATMENT OF CANCER” (Scorpion Therapeutics, Inc., priority 2020, published 2023).

Assays:
Assay type in all cases: cell-based
[1] = biological target: T1, Ba/F3 cells with EGFR WT (Homo sapiens, UniProt P00533); assay: EGFR activity: Ba/F3 cell viability (CellTiter-Glo, 72 h), EGFR WT; conditions: read-out: BaF3 WT IC50
T1 construct: expressed in transfected cells; host or cells: Ba/F3 (murine pro-B cells), retroviral transduction, puromycin selection, maintained with EGF
T1 sequence (P00533 25-1210): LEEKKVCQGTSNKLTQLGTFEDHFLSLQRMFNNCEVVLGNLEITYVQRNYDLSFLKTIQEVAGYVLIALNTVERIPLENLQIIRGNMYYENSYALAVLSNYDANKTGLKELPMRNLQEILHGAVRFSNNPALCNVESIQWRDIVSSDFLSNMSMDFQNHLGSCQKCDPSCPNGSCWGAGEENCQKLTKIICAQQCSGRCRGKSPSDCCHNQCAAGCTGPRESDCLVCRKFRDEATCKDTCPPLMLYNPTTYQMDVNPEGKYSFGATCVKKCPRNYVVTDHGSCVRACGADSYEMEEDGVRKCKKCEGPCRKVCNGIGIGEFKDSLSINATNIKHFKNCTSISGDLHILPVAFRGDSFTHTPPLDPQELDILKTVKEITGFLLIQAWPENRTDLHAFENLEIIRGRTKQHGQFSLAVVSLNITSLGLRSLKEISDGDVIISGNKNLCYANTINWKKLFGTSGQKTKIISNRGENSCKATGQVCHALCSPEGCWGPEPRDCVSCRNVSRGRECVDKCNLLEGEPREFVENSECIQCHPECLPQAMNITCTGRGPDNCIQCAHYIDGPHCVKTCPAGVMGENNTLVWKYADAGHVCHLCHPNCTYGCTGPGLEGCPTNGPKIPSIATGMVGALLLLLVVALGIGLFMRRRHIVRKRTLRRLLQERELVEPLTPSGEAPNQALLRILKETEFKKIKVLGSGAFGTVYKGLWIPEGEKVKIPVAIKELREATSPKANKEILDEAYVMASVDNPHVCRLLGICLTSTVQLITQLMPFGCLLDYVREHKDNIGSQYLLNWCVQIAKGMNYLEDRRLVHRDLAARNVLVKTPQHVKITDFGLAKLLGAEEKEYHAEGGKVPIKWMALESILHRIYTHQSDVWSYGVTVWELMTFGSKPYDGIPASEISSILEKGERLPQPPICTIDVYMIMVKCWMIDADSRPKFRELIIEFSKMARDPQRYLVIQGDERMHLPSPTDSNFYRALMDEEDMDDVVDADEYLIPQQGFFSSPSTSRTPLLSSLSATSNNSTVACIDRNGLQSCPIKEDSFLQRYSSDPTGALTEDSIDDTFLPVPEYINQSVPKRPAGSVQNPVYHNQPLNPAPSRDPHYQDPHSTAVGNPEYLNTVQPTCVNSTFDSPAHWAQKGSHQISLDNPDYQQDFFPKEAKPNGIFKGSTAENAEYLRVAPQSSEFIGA

[2] = biological target: T2, Ba/F3 cells with EGFR exon 20 NPG Ins D770_N771 (Homo sapiens, UniProt P00533, INS770NPG); assay: EGFR activity: Ba/F3 cell viability (CellTiter-Glo, 72 h), EGFR exon 20 NPG insertion; conditions: EGFR exon 20 NPG Ins D770_N771, cell viability, read-out: BaF3 NPG IC50
T2 construct: expressed in transfected cells; host or cells: Ba/F3 (murine pro-B cells), retroviral transduction, puromycin selection, IL3-independent pool
T2 sequence (P00533 with tags, fused parts or gaps INS770NPG): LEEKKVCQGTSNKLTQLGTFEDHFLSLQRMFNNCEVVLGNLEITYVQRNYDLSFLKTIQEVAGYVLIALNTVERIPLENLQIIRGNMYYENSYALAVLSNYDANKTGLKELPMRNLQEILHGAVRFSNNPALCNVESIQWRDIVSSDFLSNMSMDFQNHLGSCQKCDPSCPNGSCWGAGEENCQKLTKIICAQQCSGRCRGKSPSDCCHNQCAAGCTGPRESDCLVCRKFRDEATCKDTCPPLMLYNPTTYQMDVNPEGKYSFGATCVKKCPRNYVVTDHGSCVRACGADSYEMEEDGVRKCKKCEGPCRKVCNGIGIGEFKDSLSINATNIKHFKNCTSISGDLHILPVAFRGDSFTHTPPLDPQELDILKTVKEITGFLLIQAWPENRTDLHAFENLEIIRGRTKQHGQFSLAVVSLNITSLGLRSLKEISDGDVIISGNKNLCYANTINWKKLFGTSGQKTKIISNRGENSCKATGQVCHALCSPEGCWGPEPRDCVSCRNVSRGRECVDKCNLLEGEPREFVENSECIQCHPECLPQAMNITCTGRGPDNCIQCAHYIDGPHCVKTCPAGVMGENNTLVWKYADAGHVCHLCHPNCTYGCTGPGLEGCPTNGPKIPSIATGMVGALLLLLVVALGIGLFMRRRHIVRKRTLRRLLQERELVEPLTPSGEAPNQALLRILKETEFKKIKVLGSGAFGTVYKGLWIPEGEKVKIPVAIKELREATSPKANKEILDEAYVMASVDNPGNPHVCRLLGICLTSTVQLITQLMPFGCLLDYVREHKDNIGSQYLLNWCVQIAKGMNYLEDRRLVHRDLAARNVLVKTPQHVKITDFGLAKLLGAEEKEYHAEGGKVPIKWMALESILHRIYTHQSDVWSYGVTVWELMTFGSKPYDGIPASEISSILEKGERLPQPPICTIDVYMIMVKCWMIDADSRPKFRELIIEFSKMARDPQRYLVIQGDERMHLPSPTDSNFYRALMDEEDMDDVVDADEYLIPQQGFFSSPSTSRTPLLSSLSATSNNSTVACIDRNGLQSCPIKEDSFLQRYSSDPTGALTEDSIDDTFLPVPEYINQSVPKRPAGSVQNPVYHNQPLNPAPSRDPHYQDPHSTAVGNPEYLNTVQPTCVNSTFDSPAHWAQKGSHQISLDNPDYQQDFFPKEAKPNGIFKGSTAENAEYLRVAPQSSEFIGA

[3] = biological target: T3, Ba/F3 cells with EGFR exon 20 ASV Ins V769_D770 (Homo sapiens, UniProt P00533, INS769ASV); assay: EGFR activity: Ba/F3 cell viability (CellTiter-Glo, 72 h), EGFR exon 20 ASV insertion; conditions: EGFR exon 20 ASV Ins V769_D770, cell viability, read-out: BaF3 ASV IC50
T3 construct: expressed in transfected cells; host or cells: Ba/F3 (murine pro-B cells), retroviral transduction, puromycin selection, IL3-independent pool
T3 sequence (P00533 with tags, fused parts or gaps INS769ASV): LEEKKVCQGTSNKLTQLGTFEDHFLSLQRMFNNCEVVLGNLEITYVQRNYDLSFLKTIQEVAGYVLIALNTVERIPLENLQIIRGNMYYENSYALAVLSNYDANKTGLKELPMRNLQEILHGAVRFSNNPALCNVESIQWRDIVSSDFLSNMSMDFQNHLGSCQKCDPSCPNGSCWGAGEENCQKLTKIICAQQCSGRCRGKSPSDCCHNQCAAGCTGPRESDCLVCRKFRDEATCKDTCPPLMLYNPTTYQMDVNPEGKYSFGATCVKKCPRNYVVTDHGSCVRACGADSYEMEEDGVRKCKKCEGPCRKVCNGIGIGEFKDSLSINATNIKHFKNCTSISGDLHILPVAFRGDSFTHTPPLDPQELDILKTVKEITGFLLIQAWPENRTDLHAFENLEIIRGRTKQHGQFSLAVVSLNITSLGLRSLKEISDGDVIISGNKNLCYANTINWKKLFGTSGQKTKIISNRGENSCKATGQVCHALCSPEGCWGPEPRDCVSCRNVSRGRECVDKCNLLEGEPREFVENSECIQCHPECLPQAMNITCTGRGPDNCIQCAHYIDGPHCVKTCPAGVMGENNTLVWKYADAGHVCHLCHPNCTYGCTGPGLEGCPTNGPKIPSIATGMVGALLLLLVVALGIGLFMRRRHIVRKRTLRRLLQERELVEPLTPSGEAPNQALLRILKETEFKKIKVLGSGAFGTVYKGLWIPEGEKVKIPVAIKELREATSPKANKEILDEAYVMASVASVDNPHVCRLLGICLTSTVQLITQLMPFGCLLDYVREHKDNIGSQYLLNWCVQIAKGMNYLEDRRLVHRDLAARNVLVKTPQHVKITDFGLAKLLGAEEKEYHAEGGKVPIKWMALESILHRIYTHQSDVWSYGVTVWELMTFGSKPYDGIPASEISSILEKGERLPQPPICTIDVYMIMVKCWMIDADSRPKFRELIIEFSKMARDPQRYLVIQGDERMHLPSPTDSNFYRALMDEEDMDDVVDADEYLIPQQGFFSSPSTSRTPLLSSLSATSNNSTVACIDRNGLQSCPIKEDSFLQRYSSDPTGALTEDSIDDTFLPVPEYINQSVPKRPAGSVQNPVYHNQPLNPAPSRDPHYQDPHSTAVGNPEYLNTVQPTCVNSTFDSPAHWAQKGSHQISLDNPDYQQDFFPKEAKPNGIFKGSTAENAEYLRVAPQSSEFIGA

Q: For `C=CC(=O)NC1(C#Cc2cnccc2-c2[nH]c3c(c2Nc2cccc(Cl)c2OC)C(=O)NCC3)CN(C)C1` [compound 410], which IC50 [1] is on record?
A: Its IC50 is over 1000 nM.

Q: What about the IC50 [2] of the same compound?
A: The IC50 was under 100 nM.

Q: What about the IC50 [3] of the same compound?
A: The IC50 was 100 to 1000 nM.

Q: `C=CC(=O)NC(C)(C)C#Cc1cnccc1-c1[nH]c2c(c1Nc1cc(F)cc(Cl)c1OC)C(=O)NCC2` [compound 428] was tested. Which IC50 [1] did it give?
A: Its IC50 is 100 to 1000 nM.

Q: What about the IC50 [2] of the same compound?
A: Its IC50 is under 100 nM.

Q: And the IC50 [3]?
A: Its IC50 is under 100 nM.

Q: How did the IC50 [1] turn out when `COc1c(Cl)cc(F)cc1Nc1c(-c2ccncc2C#C[C@@]2(C)CCCN2C(=O)C#CCN(C)C)[nH]c2c1C(=O)NCC2` [compound 432] was run?
A: The IC50 was 100 to 1000 nM.

Q: And the IC50 [2]?
A: The IC50 was under 100 nM.

Q: And the IC50 [3]?
A: Its IC50 is under 100 nM.

Q: For `COc1c(Cl)cc(F)cc1Nc1c(-c2ccncc2C#CC23CC(CN2C(=O)/C=C/CN(C)C)C3)[nH]c2c1C(=O)NCC2` [compound 438], which IC50 [1] is on record?
A: Its IC50 is 100 to 1000 nM.

Q: What about the IC50 [2] of the same compound?
A: Its IC50 is under 100 nM.

Q: What about the IC50 [3] of the same compound?
A: The IC50 was under 100 nM.

Q: Which IC50 [1] does the source give for `C=CC(=O)NC1(C#Cc2cnccc2-c2[nH]c3c(c2Nc2cccc(Cl)c2OC)C(=O)NCC3)CNC1` [compound 455] here?
A: Its IC50 is over 1000 nM.

Q: And the IC50 [2]?
A: The IC50 was over 1000 nM.

Q: What about the IC50 [3] of the same compound?
A: The IC50 was over 1000 nM.

Q: `COc1c(F)cccc1Nc1c(-c2ccncc2C#C[C@@]2(C)COCCN2C(=O)/C=C/CN(C)C)[nH]c2c1C(=O)NCC2` [compound 459] was tested. Which IC50 [1] did it give?
A: The IC50 was over 1000 nM.

Q: What about the IC50 [2] of the same compound?
A: Its IC50 is under 100 nM.

Q: And the IC50 [3]?
A: Its IC50 is under 100 nM.

Q: Which results are given for `C=CC(=O)N1CCOC[C@]1(C)C#Cc1cnccc1-c1[nH]c2c(c1Nc1cccc(F)c1OC)C(=O)NCC2` [compound 460]?
A: IC50 [1]: 100 to 1000 nM; IC50 [2]: < 100 nM; IC50 [3]: < 100 nM

Q: For `C=CC(=O)N1CCOC[C@]1(C)C#Cc1cnccc1-c1[nH]c2c(c1Nc1cccc(Cl)c1OC)C(=O)NCC2` [compound 461], which IC50 [1] is on record?
A: The IC50 was 100 to 1000 nM.

Q: And the IC50 [2]?
A: Its IC50 is under 100 nM.

Q: What about the IC50 [3] of the same compound?
A: The IC50 was under 100 nM.

Q: Which results are given for `COc1c(Cl)cccc1Nc1c(-c2ccncc2C#C[C@H]2CN(C)CCO2)[nH]c2c1C(=O)NCC2` [compound 495]?
A: IC50 [1]: 100 to 1000 nM; IC50 [2]: < 100 nM; IC50 [3]: < 100 nM

Q: Which IC50 [1] does the source give for `Cc1c(F)cccc1Nc1c(-c2ccncc2C#CC(C)(C)C)[nH]c2c1C(=O)NCC2` [compound 499] here?
A: Its IC50 is over 1000 nM.

Q: What about the IC50 [2] of the same compound?
A: Its IC50 is under 100 nM.

Q: And the IC50 [3]?
A: The IC50 was under 100 nM.

Q: For `COc1c(Cl)cccc1Nc1c(-c2ccncc2C#CC2CCCC2)[nH]c2c1C(=O)NCC2` [compound 526], which IC50 [1] is on record?
A: The IC50 was 100 to 1000 nM.

Q: What about the IC50 [2] of the same compound?
A: Its IC50 is under 100 nM.

Q: What about the IC50 [3] of the same compound?
A: The IC50 was under 100 nM.

Q: For `C=C(CN(C)C)C(=O)NC(C)(C)C#Cc1cnccc1-c1[nH]c2c(c1Nc1cccc(Cl)c1OC)C(=O)NCC2` [compound 574], which IC50 [1] is on record?
A: The IC50 was under 100 nM.

Q: What about the IC50 [2] of the same compound?
A: Its IC50 is under 100 nM.

Q: And the IC50 [3]?
A: Its IC50 is under 100 nM.

Q: Which results are given for `C=C(CN(C)C)C(=O)NC(C)(C)C#Cc1cnccc1-c1[nH]c2c(c1Nc1cccc(F)c1OC)C(=O)NCC2` [compound 575]?
A: IC50 [1]: < 100 nM; IC50 [2]: < 100 nM; IC50 [3]: < 100 nM

Q: Which IC50 [1] does the source give for `C=CC(=O)N[C@H](C#Cc1cnccc1-c1[nH]c2c(c1Nc1cccc(Cl)c1OC)C(=O)NCC2)CC` [compound 581] here?
A: The IC50 was 100 to 1000 nM.

Q: What about the IC50 [2] of the same compound?
A: The IC50 was under 100 nM.

Q: And the IC50 [3]?
A: Its IC50 is under 100 nM.

Q: For `C=CC(=O)N[C@@H](C#Cc1cnccc1-c1[nH]c2c(c1Nc1cccc(Cl)c1OC)C(=O)NCC2)CC` [compound 582], which IC50 [1] is on record?
A: Its IC50 is over 1000 nM.

Q: And the IC50 [2]?
A: The IC50 was under 100 nM.

Q: What about the IC50 [3] of the same compound?
A: The IC50 was under 100 nM.

Q: How did the IC50 [1] turn out when `COc1c(F)cccc1Nc1c(-c2ccncc2C#C[C@H]2CCN2C(=O)/C=C/CN(C)C)[nH]c2c1C(=O)NCC2` [compound 593] was run?
A: Its IC50 is 100 to 1000 nM.

Q: What about the IC50 [2] of the same compound?
A: Its IC50 is under 100 nM.

Q: And the IC50 [3]?
A: Its IC50 is under 100 nM.

Q: For `COc1c(F)cccc1Nc1c(-c2ccncc2C#C[C@@H]2CCN2C(=O)/C=C/CN(C)C)[nH]c2c1C(=O)NCC2` [compound 594], which IC50 [1] is on record?
A: The IC50 was over 1000 nM.

Q: What about the IC50 [2] of the same compound?
A: Its IC50 is under 100 nM.

Q: What about the IC50 [3] of the same compound?
A: Its IC50 is under 100 nM.

Q: With `COc1c(Cl)cccc1Nc1c(-c2ccncc2C#C[C@@]2(C)CCCN2C(=O)/C=C/CNC2COC2)[nH]c2c1C(=O)NCC2` [compound 595] as the compound, how does the IC50 [1] read?
A: Its IC50 is over 1000 nM.

Q: And the IC50 [2]?
A: The IC50 was under 100 nM.

Q: And the IC50 [3]?
A: The IC50 was 100 to 1000 nM.

Q: `COc1c(Cl)cccc1Nc1c(-c2ccncc2C#C[C@@]2(C)CCCN2C(=O)/C=C/CN2CC(F)(F)C2)[nH]c2c1C(=O)NCC2` [compound 603] was tested. Which IC50 [1] did it give?
A: Its IC50 is over 1000 nM.

Q: What about the IC50 [2] of the same compound?
A: The IC50 was 100 to 1000 nM.

Q: And the IC50 [3]?
A: Its IC50 is 100 to 1000 nM.

Q: How did the IC50 [1] turn out when `CC#CC(=O)N1CC[C@@H]1COc1cnccc1-c1[nH]c2cc[nH]c(=O)c2c1Nc1cccc(Cl)c1OC` [compound 630] was run?
A: The IC50 was over 1000 nM.

Q: What about the IC50 [2] of the same compound?
A: The IC50 was under 100 nM.

Q: And the IC50 [3]?
A: Its IC50 is under 100 nM.
